Test results from patent publication US20220390435A1, “COMPOSITIONS FOR PATIENT SPECIFIC IMMUNOTHERAPY” (VITROSCAN B.V., priority 2019, published 2022).

How the values were obtained:
Assay type in all cases: cell-based, human
ovarian cancer tumoroids = assay: ex vivo 3D patient-derived tumour culture with 3D imaging, ovarian cancer samples; conditions: for area size of small objects (smaller than 160 μm^2, immune cells): same ovarian tumour sample as FIG. 4, FIG. 5
[1] = test system: patient derived tumour cell aggregates; assay: Selection Factor (tumoroids' area decrease) across patient samples; conditions: for immune reaction reducing the number of tumour cells (Selection Factor across samples): FIGS. 8 and 9, alone or in combination, immune system of a naïve patient sample only
lung tumour sample = assay: ex vivo 3D patient-derived tumour culture with 3D imaging, lung tumour sample; conditions: FIG. 6
[2] = test system: Mesothelioma tumour sample; assay: ex vivo 3D patient-derived tumour culture with 3D imaging, mesothelioma sample; conditions: FIG. 3
IFN-γ = IFN-γ production in treated patient-derived cultures; conditions: FIG. 7; IFN-γ is secreted by activated T-cells

Row | Molecule | area size of small objects (smaller than 160 μm^2, immune cells) (ovarian cancer tumoroids) | immune reaction reducing the number of tumour cells (Selection Factor across samples) [1] | killing effect in a lung cancer tumour sample (lung tumour sample) | also measured
1 | Nc1ncnc2c1ncn2[C@@H]1O[C@@H]2COP(=O)([S-])O[C@@H]3[C@H](O)[C@@H](COP([O-])(=S)O[C@H]2[C@H]1O)O[C@H]3n1cnc2c(N)ncnc21.[Na+].[Na+] (stereo partly shown) [ADU-S100] | area size increase of small objects |  |  | 
2 | O=C(c1cc(Cc2n[nH]c(=O)c3ccccc23)ccc1F)N1CCN(C(=O)C2CC2)CC1 [olaparib] |  | able to start an immune reaction that effectively reduced the number of tumour cells |  | 
3 | ipilimumab |  | able to start an immune reaction that effectively reduced the number of tumour cells | killing effect in a lung cancer tumour sample | activating native immune cells to kill ovarian cancer tumoroids (total area of objects larger than 422 μm^2 / smaller than 160 μm^2) (ovarian cancer tumoroids; ovarian cancer samples of FIG. 1): showed effectiveness in activating immune cells; activating native immune cells to kill tumoroids (ovarian cancer tumoroids; ovarian cancer samples of FIG. 2): does not show effectiveness; immune-mediated tumoroid killing effect [2]: showing immune-mediated tumoroid killing effect; in-vitro Selection Factor ([1]; subset of patients that benefit from treatment): below −30%; IFN-γ production (IFN-γ): increased
4 | nivolumab |  |  | killing effect in a lung cancer tumour sample | 
5 | pembrolizumab | area size increase of small objects |  | killing effect in a lung cancer tumour sample | killing effect, i.e. area size reduction of tumoroid clusters (ovarian cancer tumoroids; ovarian tumour sample, FIG. 4): killing effect, i.e. area size reduction of tumoroid clusters
